Data published in patent US20240166636A1, “CRYSTALLINE COMPOUNDS AND METHODS OF MAKING THE SAME” (Epizyme, Inc., priority 2019, published 2024).

How the values were obtained:
Assay type in all cases: physicochemical
[1] = Hygroscopicity (dynamic vapor sorption); details: compared to other salt forms of Compound I
Protocol: Dynamic Vapor Sorption (DVS) was measured on a VTI Model SGA-100 system. Measurement method: The relative humidity (RH) was changed in a controlled fashion, in 5% steps from 5.0% to 95.0% then back to 5.0% using the gravimetric vapor sorption system, and the weight percentage change (wt. %) of the sample at each stage was measured.

[2] = Intrinsic dissolution rate of polymorphs
[3] = Competitive slurry experiments, thermodynamically most stable form; details: 50/50% (w/w) mixture of Polymorph A and Polymorph B, slurried for several days, varying water content and temperature
Protocol: Several slurries were prepared, varying the water content and the temperature. […] As a result, the isolation temperature (e.g. in step b-2) was increased (e.g., from 15° C. to 22° C.) and the water content of the solvent system during the cooling crystallization was reduced (e.g., from 9.7% (v/v) to 9.0% (v/v)).

SMILES | hygroscopicity [1] | Intrinsic Dissolution Rate (IDR) [2] | % Rate relative to From A ([2]; IDR relative to Polymorph A) | thermodynamically most stable form as a function of temperature and water content in the solvent [3]
Br.CCN(c1cc(-c2ccc(CN3CCOCC3)cc2)cc(C(=O)NCc2c(C)cc(C)[nH]c2=O)c1C)C1CCOCC1 [Compound I hydrobromide, N-((4,6-dimethyl-2-oxo-1,2-dihydropyridin-3-yl)methyl)-5-(ethyl (tetrahydro-2H-pyran-4-yl)amino)-4-methyl-4′-(morpholinomethyl)-[1,1′-biphenyl]-3-carboxamide hydrobromide] | low hygroscopicity | – | – | –
CN(C)CCc1c[nH]c2cccc(OP(=O)(O)O)c12 [Polymorph A] | – | 7.6 mg/min/cm^2 | 100% | stable form at higher temperatures and lower water content
